Data as given in ChEMBL document CHEMBL1201862, “PubChem BioAssay data set” (2004).
Values joined by “and” are separate entries in the source; they are usually repeats but may differ in a detail not shown here. Equal values may be shown once.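 96-well plates; 48 h exposure; 5 concentrations. Endpoints by linear interpolation between flanking doses. Not reached: highest tested concentration assigned. GI50 marks 50% less growth.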 Active and inactive are the calls of the source. No stated cut-off is given here; in the data, active = GI50 up to about 1.1 µM and inactive = higher.

What was measured:
Experiment in all cases: inhibition of tumour cell growth, NCI panel, 48 h
HCC 2998 = system: HCC 2998
NCI/ADR-RES = system: NCI/ADR-RES
SF-268 = system: SF-268
RXF 393 = system: RXF 393
SN12C = system: SN12C
T47D = system: T47D
MCF7 = system: MCF7
COLO 205 = system: COLO 205
OVCAR-5 = system: OVCAR-5
NCI-H460 = system: NCI-H460
NCI-H23 = system: NCI-H23
UACC-62 = system: UACC-62
MDA-N = system: MDA-N
NCI-H226 = system: NCI-H226
OVCAR-3 = system: OVCAR-3
M14 = system: M14
HT-29 = system: HT-29
SF-539 = system: SF-539
SNB-75 = system: SNB-75
A498 = system: A498
UO-31 = system: UO-31
SK-OV-3 = system: SK-OV-3
Hs-578T = system: Hs-578T
UACC-257 = system: UACC-257
PC-3 = system: PC-3
DU-145 = system: DU-145
CCRF-CEM = system: CCRF-CEM
SK-MEL-2 = system: SK-MEL-2
SNB-19 = system: SNB-19
IGROV-1 = system: IGROV-1
LOX IMVI = system: LOX IMVI
MOLT-4 = system: MOLT-4
SF-295 = system: SF-295
KM12 = system: KM12
HCT-116 = system: HCT-116
A549 = system: A549
MDA-MB-231 = system: MDA-MB-231
HOP-62 = system: HOP-62
Malme-3M = system: Malme-3M
OVCAR-8 = system: OVCAR-8
EKVX = system: EKVX
SR = system: SR
CAKI-1 = system: CAKI-1
NCI-H522 = system: NCI-H522
RPMI-8226 = system: RPMI-8226
786-0 = system: 786-0
U-251 = system: U-251
MDA-MB-435 = system: MDA-MB-435
SK-MEL-28 = system: SK-MEL-28
ACHN = system: ACHN
SK-MEL-5 = system: SK-MEL-5
HL-60 = system: HL-60
K562 = system: K562
SW-620 = system: SW-620

`Cc1cc(O)c2c(c1)C(=O)C=CC2=O` [RAMENTACEONE] was tested, and the GI50 (HCC 2998) was 11.2 µM (inactive) and 15.6 µM (inactive), the GI50 (NCI/ADR-RES) was 8.15 µM (inactive) and 15.9 µM (inactive) and the GI50 (SF-268) was 17.7 µM (inactive) and 10.4 µM (inactive). For the same compound, the GI50 (RXF 393) was 4.41 µM (inactive) and 2.7 µM (inactive), the GI50 (SN12C) was 7.76 µM (inactive) and 12.1 µM (inactive) and the GI50 (T47D) was 2.65 µM (inactive) and 3.11 µM (inactive). The GI50 (MCF7) was 7.05 µM (inactive) and 4.79 µM (inactive), the GI50 (COLO 205) was 3.92 µM (inactive) and 2.74 µM (inactive) and the GI50 (OVCAR-5) was 19.4 µM (inactive) and 18 µM (inactive). For the same compound, the GI50 (NCI-H460) was 19.3 µM (inactive) and 16.3 µM (inactive), the GI50 (NCI-H23) was 8.39 µM (inactive) and 12.4 µM (inactive) and the GI50 (UACC-62) was 4.72 µM (inactive) and 7.38 µM (inactive). The GI50 (MDA-N) was 2.21 µM (inactive) and 3.56 µM (inactive), the GI50 (NCI-H226) was 18.6 µM (inactive) and 17.8 µM (inactive) and the GI50 (OVCAR-3) was 1.66 µM (inactive) and 2.27 µM (inactive). For the same compound, the GI50 (M14) was 6.68 µM (inactive) and 8.77 µM (inactive), the GI50 (HT-29) was 7.05 µM (inactive) and 5.74 µM (inactive) and the GI50 (SF-539) was 16.9 µM (inactive) and 14.9 µM (inactive). The GI50 (SNB-75) was 15.5 µM (inactive) and 16.6 µM (inactive), the GI50 (A498) was 22 µM (inactive) and 31.4 µM (inactive) and the GI50 (UO-31) was 4.69 µM (inactive) and 2.91 µM (inactive). For the same compound, the GI50 (SK-OV-3) was 27.9 µM (inactive) and 28 µM (inactive), the GI50 (Hs-578T) was 19.4 µM (inactive) and 15.7 µM (inactive) and the GI50 (UACC-257) was 5.25 µM (inactive) and 4.05 µM (inactive). For the same compound, the GI50 (PC-3) was 11.2 µM (inactive) and 17.7 µM (inactive), the GI50 (DU-145) was 19.7 µM (inactive) and 16.4 µM (inactive) and the GI50 (CCRF-CEM) was 121 nM (active) and 212 nM (active). For the same compound, the GI50 (SK-MEL-2) was 14.9 µM (inactive) and 19.1 µM (inactive), the GI50 (SNB-19) was 20.6 µM (inactive) and 17.1 µM (inactive) and the GI50 (IGROV-1) was 14.1 µM (inactive) and 9.38 µM (inactive). For the same compound, the GI50 (LOX IMVI) was 3.04 µM (inactive) and 5.55 µM (inactive), the GI50 (MOLT-4) was 424 nM (active) and 298 nM (active) and the GI50 (SF-295) was 16.5 µM (inactive) and 17.4 µM (inactive). For the same compound, the GI50 (KM12) was 14.1 µM (inactive) and 16.1 µM (inactive), the GI50 (HCT-116) was 4.34 µM (inactive) and 3.72 µM (inactive) and the GI50 (A549) was 25.4 µM (inactive) and 19.1 µM (inactive). For the same compound, the GI50 (MDA-MB-231) was 5.06 µM (inactive) and 9.31 µM (inactive) and the GI50 (HOP-62) was 19.5 µM (inactive) and 21 µM (inactive).

With `O=C(Nc1cccc([N+](=O)[O-])c1)c1nnn(-c2cccc([N+](=O)[O-])c2)c1O` the GI50 (NCI/ADR-RES) was > 100 µM (inactive), the GI50 (SF-268) was > 100 µM (inactive) and the GI50 (RXF 393) was > 100 µM (inactive). For the same compound, the GI50 (SN12C) was > 100 µM (inactive), the GI50 (Malme-3M) was > 100 µM (inactive) and the GI50 (T47D) was > 100 µM (inactive). The GI50 (MCF7) was > 100 µM (inactive), the GI50 (COLO 205) was > 100 µM (inactive) and the GI50 (OVCAR-5) was > 100 µM (inactive). The GI50 (NCI-H23) was > 100 µM (inactive), the GI50 (UACC-62) was > 100 µM (inactive) and the GI50 (MDA-N) was > 100 µM (inactive). The GI50 (NCI-H226) was > 100 µM (inactive), the GI50 (OVCAR-8) was > 100 µM (inactive) and the GI50 (M14) was > 100 µM (inactive). The GI50 (HT-29) was > 100 µM (inactive), the GI50 (EKVX) was > 100 µM (inactive) and the GI50 (SR) was > 100 µM (inactive). The GI50 (SF-539) was 32.2 nM (active), the GI50 (SNB-75) was > 100 µM (inactive) and the GI50 (A498) was > 100 µM (inactive). For the same compound, the GI50 (CAKI-1) was > 100 µM (inactive), the GI50 (UO-31) was 67.5 µM (inactive) and the GI50 (SK-OV-3) was > 100 µM (inactive). The GI50 (Hs-578T) was > 100 µM (inactive), the GI50 (NCI-H522) was > 100 µM (inactive) and the GI50 (UACC-257) was > 100 µM (inactive). For the same compound, the GI50 (PC-3) was > 100 µM (inactive), the GI50 (RPMI-8226) was > 100 µM (inactive) and the GI50 (DU-145) was > 100 µM (inactive). For the same compound, the GI50 (CCRF-CEM) was > 100 µM (inactive), the GI50 (SK-MEL-2) was > 100 µM (inactive) and the GI50 (SNB-19) was > 100 µM (inactive). For the same compound, the GI50 (786-0) was > 100 µM (inactive), the GI50 (U-251) was > 100 µM (inactive) and the GI50 (IGROV-1) was > 100 µM (inactive). For the same compound, the GI50 (MDA-MB-435) was > 100 µM (inactive), the GI50 (SK-MEL-28) was > 100 µM (inactive) and the GI50 (LOX IMVI) was > 100 µM (inactive). The GI50 (MOLT-4) was > 100 µM (inactive), the GI50 (ACHN) was > 100 µM (inactive) and the GI50 (SK-MEL-5) was > 100 µM (inactive). For the same compound, the GI50 (SF-295) was > 100 µM (inactive), the GI50 (KM12) was > 100 µM (inactive) and the GI50 (HL-60) was > 100 µM (inactive). The GI50 (HCT-116) was > 100 µM (inactive), the GI50 (A549) was > 100 µM (inactive) and the GI50 (K562) was > 100 µM (inactive). The GI50 (MDA-MB-231) was > 100 µM (inactive), the GI50 (HOP-62) was > 100 µM (inactive) and the GI50 (SW-620) was > 100 µM (inactive).
